From article PMC6934184, “Selective DNA-PKcs inhibition extends the therapeutic index of localized radiotherapy and chemotherapy” (The Journal of Clinical Investigation, 2019)

Target: T1, FGFR1 V561M (Homo sapiens, UniProt P11362, V561M)
T1 construct: purchased Thermo Fisher Scientific (Life Technologies) SelectScreen
Assay: SelectScreen LanthaScreen
Assay type: binding
Conditions: read-out: % displacement
How it was run: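 NU5455 was profiled across the SelectScreen Broad panel of kinase activity and binding assays. Z'LYTE reactions such as CSF1R ran at apparent Km ATP, while the Adapta CAMK1 assay used ATP listed as 10. Values are given as percent.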

T1 sequence (P11362 22-822 V561M): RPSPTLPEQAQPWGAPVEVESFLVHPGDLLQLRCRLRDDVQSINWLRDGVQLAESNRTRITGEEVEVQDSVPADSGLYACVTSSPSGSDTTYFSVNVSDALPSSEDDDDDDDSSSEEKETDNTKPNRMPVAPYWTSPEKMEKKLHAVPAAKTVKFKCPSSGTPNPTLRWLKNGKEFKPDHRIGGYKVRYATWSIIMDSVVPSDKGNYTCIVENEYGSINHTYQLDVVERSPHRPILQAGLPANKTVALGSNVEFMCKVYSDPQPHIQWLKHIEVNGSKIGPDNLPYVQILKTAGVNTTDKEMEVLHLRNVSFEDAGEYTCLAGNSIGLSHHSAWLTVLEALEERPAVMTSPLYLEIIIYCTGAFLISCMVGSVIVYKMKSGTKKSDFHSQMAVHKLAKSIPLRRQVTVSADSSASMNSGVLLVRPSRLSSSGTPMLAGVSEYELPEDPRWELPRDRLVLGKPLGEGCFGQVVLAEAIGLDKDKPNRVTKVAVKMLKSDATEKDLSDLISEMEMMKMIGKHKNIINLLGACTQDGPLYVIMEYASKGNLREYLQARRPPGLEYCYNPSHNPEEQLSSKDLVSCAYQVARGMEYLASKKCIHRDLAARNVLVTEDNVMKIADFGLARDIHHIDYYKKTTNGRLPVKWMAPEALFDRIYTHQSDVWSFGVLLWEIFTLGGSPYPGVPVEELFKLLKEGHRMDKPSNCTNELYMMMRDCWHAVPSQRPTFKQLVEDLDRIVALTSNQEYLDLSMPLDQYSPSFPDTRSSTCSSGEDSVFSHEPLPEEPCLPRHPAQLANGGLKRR

CN(C(=O)CN1CCOCC1)c1ccc2sc3c(-c4cccc5c(=O)cc(N6CC7CCC(C6)O7)oc45)cccc3c2c1 [NU5455]
inhibition at 1 µM: 5.1%
